According to ChEMBL document CHEMBL1144698, “New approach to measure protein binding based on a parallel artificial membrane assay and human serum albumin” (J Med Chem, 2008):
pKd: −log10 of the molar value.

Columns and labels:
Format in all cases: ADME
[1] = target: T1, Albumin (Homo sapiens, UniProt P02768); experiment: Binding affinity to human serum albumin by PAMPA method
[2] = target: T1, Albumin; experiment: Binding affinity to 100 uM human serum albumin at 10 uM by PAMPA method
[3] = target: T1, Albumin; experiment: Binding affinity to 300 uM human serum albumin at 10 uM by PAMPA method
[4] = target: T1, Albumin; experiment: Binding affinity to 600 uM human serum albumin at 10 uM by PAMPA method
[5] = target: T1, Albumin; experiment: Binding affinity to 100 uM human serum albumin at 50 uM by PAMPA method
[6] = target: T1, Albumin; experiment: Binding affinity to 50 uM human serum albumin at 10 uM by PAMPA method

T1 sequence (P02768 whole entry): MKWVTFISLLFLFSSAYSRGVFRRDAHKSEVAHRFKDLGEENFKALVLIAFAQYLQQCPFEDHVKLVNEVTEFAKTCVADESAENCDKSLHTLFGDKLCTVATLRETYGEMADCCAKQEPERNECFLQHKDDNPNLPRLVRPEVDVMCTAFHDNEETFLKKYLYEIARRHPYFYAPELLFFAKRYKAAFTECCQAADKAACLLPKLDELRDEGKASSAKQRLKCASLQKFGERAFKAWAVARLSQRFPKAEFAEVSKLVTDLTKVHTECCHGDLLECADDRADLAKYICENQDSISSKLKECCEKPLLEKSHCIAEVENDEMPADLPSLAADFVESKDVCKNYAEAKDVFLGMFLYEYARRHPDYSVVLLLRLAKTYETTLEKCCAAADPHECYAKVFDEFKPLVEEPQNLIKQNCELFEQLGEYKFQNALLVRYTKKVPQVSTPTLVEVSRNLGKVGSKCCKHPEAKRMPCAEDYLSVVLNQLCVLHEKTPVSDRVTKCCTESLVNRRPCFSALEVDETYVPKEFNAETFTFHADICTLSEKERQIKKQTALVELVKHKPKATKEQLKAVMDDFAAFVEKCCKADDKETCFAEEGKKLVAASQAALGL

Row | pKd [1] | pKd [2] | pKd [3] | pKd [4] | pKd [5] | pKd [6] | Compound
1 | 3.07 |  |  |  |  |  | CNCCCN1c2ccccc2CCc2ccccc21 [DESIPRAMINE]
2 | 3.36 | 3.18 | 3.22 | 3.20 | 3.36 | 3.45 | CC(C)NCC(O)COc1cccc2ccccc12 (configuration not stated) [PROPRANOLOL]
